According to patent publication EP0411183A1, “Ascorbic acid derivative” (NIPPON HYPOX LABORATORIES INCORPORATED, priority 1989, dated 1991):

How the values were obtained:
[1] = Antioxidant action examined by using stable radicals (DPPH reduction activity, M.S. Blois method); format: biochemical; conditions: 0.1 mM DPPH solution in ethanol, absorbance at 517 nm after 20 minutes; read-out: 50% radical eliminating concentration
Method: Test example 1 (Antioxidant action examined by using stable radicals)
Reduction activity of α,-α-diphenyl-β-picrylhydrazyl (DPPH) which was a stable free radical was examined according to the M.S. Blois method (Nature, vol. 181, page. 1199, 1958) and used as an index to antioxidant action. Thus, specimens were added to 3 mℓ of a 0.1 mM DPPH solution in ethanol, and absorbance at a wavelength of 517 nm was measured using a spectrophotometer after 20 minutes. The difference in absorbance from the solvent control [0.5% or less of dimethylformamide (DMF)] was taken as the reduction activity.

[2] = tested on: superoxide anion radicals; experiment: Effects on formazan formation in the xanthine-xanthine oxidase-Nitrotetrazolium Blue system; format: biochemical; conditions: for Inhibition ratio (%) of formazan formation: phosphate buffer pH 7.8, 30°C, 10 minutes; for formazan formation (result in words): summary of Table-3
Method: Specimens were added to a 0.05 M phosphate buffer solution (pH 7.8) containing xanthine, EDTA 2Na and Nitrotetrazolium Blue (NTB) so as to provide the respective final concentrations of 5x10⁻⁵ M, 1x10⁻⁴ M and 5x10⁻⁴ M and warmed at 30°C for 3 minutes. Xanthine oxidase (manufactured by Sigma Corp.) was added, and the resulting specimens were warmed at 30°C for 10 minutes to colorimetrically determine formazan formed by superoxide anion radicals. The inhibition ratio of formazan formation was determined from the results at concentrations of 0.5 mM and 4 mM of each specimen.

IC50 [1] [µM] | Compound | Inhibition ratio (%) of formazan formation ([2]; Concentration 0.5 mM) [%] | Inhibition ratio (%) of formazan formation ([2]; Concentration 4 mM) [%] | formazan formation (result in words) [2]
17 | L-5,6-O-isopropylidene-3-O-methylcarbomethylascorbic acid [compound 021] | 9.2 | 47.4 | remarkably inhibited formazan formation
23 | CC1(C)OCC(C2OC(=O)C(O)=C2OCc2ccccn2)O1 [compound 007, L-5,6-O-isopropylidene-3-O-2′-pyridylmethylascorbic acid] | – | – | –

Compound | IC50 [1] [µM] | Inhibition ratio (%) of formazan formation ([2]; Concentration 0.5 mM) [%] | Inhibition ratio (%) of formazan formation ([2]; Concentration 4 mM) [%] | formazan formation (result in words) [2]
L-5,6-O-isopropylidene-3-O-(3-butanone) ascorbic acid [compound 022] | 20 | 22.6 | 26.7 | remarkably inhibited formazan formation
